Where “and” joins values, the source holds several entries; their conditions need not be identical. Identical values can stand only once. Counter-ions that a name gives are not always drawn.
Test system: human subjects
Assay: Repeated measures knee extension strength test (Muscle Strength Test) during and after limb immobilization, placebo-controlled study
Type: in vivo
Details: for Muscle strength, knee extension, Baseline Mean: baseline pre-dose; for Muscle strength, knee extension, LSMean change from baseline, Day 14: Day 14 (brace off); for Muscle strength, knee extension, LSMean change from baseline, Day 29: P 0.2 vs placebo; for Mean Difference Compound 1 vs Placebo, LSMean change in muscle strength, Day 29: P 0.2
From the text: A protocol for the experimental evaluation of the impact of a PPARδ agonist on muscle atrophy during and following the end of limb immobilization is provided below. In the protocol, reference to Compound 1 refers to (E)-[4-[3-(4-Fluorophenyl)-3-[4-[3-(morpholin-4-yl)propynyl]phenyl]allyloxy]-2-methyl-phenoxy]acetic acid sodium salt.
A randomized, investigator and subject blind, sponsor open, placebo-controlled study evaluating the possible impact of Compound 1 on the recovery of muscle atrophy from limb immobilization is described. Subjects will be leg immobilized using a knee brace (30 degrees flexion on the left leg to allow driving) and will be provided with walking crutches such that there is no weight bearing on the immobilized leg. Subjects will be enrolled and randomized to receive Compound 1 or placebo (both referenced as Study Drug in this protocol). The study consists of five periods termed SCR (screening period, Day −35 to −3), BL (baseline period: Day −1 to Day 1 [am]), IMM (limb immobilization and treatment with study drug, Day 1 [pm] to Day 14), TRE (treatment with study drug without limb immobilization, Day 15 to Day 29) and REC (no treatment recovery period, Day 29 to Day 42). There will be six testing days during the study: Day 1 (baseline), Day 14 (brace off day), Day 16 (48 hours after brace off), Day 21, Day 29 (last dose) and Day 42 (final study visit). On each testing day, subjects will undergo the combination of several testing procedures in sequential order as listed: 1) Morning activity plus approximately 500-step walk (when domiciled at Clinical Research Unit [CRU]); 2) Blood sampling; 3) Standardized breakfast (Study Drug administration will be immediately before the breakfast except for Day 42); 4) Muscle biopsy; 5) Leg muscle strength tests (MST) and modified physical performance test (PPT); and 6) Magnetic resonance imaging (MRI) of the thigh to evaluate thigh muscle volume/cross-section area (CSA).
Two treatment groups in this study: • a) Treatment group A: Treated with 100 mg of Compound 1 twice daily from Day 1 to Day 29. • b) Treatment group B: Treated with placebo twice daily from Day 1 to Day 29.
The maximal amount of weight that the participant is able to lift for one repetition (1-RM) will be measured on a Hoist multi-station weight machine for the following exercises: leg press, knee extension, knee flexion, and bench press. Isokinetic (Cybex) testing of knee extension/flexion will be done to assess deficiencies in rapid strength recruitment. Subjects will be seated on the testing device and strapped in to prevent the pelvis from sliding forward. The movement arm will be adjusted to the subject's leg length and the weight of the leg will be determined. Isokinetic testing of the knee extensors and flexors will be performed at 0°/s, 60°/s and 180°/s. Four to five repetitions at each mode will be performed with the highest two values used for data analysis. Subjects will be familiarized with these procedures during the screening visit.
An experimental study was conducted to evaluate the impact of Compound 1, a PPARδ agonist, on muscle atrophy during and following the end of limb immobilization in human subjects. Except where specifically noted otherwise below, all methods were conducted as described in the protocol above.
Methods were generally conducted as described in the protocol. The study was designed as a double-blind, randomized, placebo-controlled, parallel study in healthy male subjects. A total of N=24 subjects were randomized. The number of randomized subjects is lower than originally planned. A total of N=21 subjects had data available for statistical analysis.
Multiple imputation statistical methods were used to preserve the intent-to-treat (ITT) principle while coping with invalid and missing data.
Primary analysis was executed as defined in the study protocol and the statistical analysis plan (see protocol described above). […]

## Cc1cc(OC/C=C(/c2ccc(F)cc2)c2ccc(C#CCN3CCOCC3)cc2)ccc1OCC(=O)O [Compound 1, (E)-[4-[3-(4-Fluorophenyl)-3-[4-[3-(morpholin-4-yl)propynyl]phenyl]allyloxy]-2-methyl-phenoxy]acetic acid sodium salt]
14 days following the end of immobilization (i.e., day 28)
  Change in muscle strength compared to baseline, difference to placebo: no longer significantly different
Table 1 primary analysis, multiple imputation for missing and invalid data, n = 10, healthy males, raw data in lbs
  Muscle strength, knee extension, Baseline Mean: 195
Table 1 primary analysis, multiple imputation, 100 mg twice daily, n = 10, P 0.012 vs placebo
  Muscle strength, knee extension, LSMean change from baseline, Day 14: −2.9
Table 1 primary analysis, multiple imputation, P 0.012
  Mean Difference Compound 1 vs Placebo, LSMean change in muscle strength, Day 14: 36
Table 1 primary analysis, multiple imputation, 100 mg twice daily, n = 10, P 0.004 vs placebo
  Muscle strength, knee extension, LSMean change from baseline, Day 21 (primary): 36.8
Table 1 primary analysis, multiple imputation, P 0.004
  Mean Difference Compound 1 vs Placebo, LSMean change in muscle strength, Day 21 (primary): 36.5
Table 1 primary analysis, multiple imputation, 100 mg twice daily, n = 10
  Muscle strength, knee extension, LSMean change from baseline, Day 29: 30.4
Table 1 primary analysis, multiple imputation
  Mean Difference Compound 1 vs Placebo, LSMean change in muscle strength, Day 29: 21.9
Table 1 primary analysis, multiple imputation, P 0.3
  Mean Difference Compound 1 vs Placebo, Baseline mean muscle strength: 19
Table 2 supportive analysis, no imputation, excluding protocol violators, n = 9
  Muscle strength, knee extension, Baseline Mean: 191 lbs
Table 2 supportive analysis, no imputation, 100 mg twice daily, n = 9, P 0.04 vs placebo
  Muscle strength, knee extension, LSMean change from baseline, Day 14: −1.9 lbs
Table 2 supportive analysis, no imputation, P 0.04
  Mean Difference Compound 1 vs Placebo, LSMean change in muscle strength, Day 14: 36.3 lbs
Table 2 supportive analysis, no imputation, 100 mg twice daily, n = 9, P 0.048 vs placebo
  Muscle strength, knee extension, LSMean change from baseline, Day 21 (primary): 31.5 lbs
Table 2 supportive analysis, no imputation, P 0.048
  Mean Difference Compound 1 vs Placebo, LSMean change in muscle strength, Day 21 (primary): 31.3 lbs
Table 2 supportive analysis, no imputation, 100 mg twice daily, n = 9
  Muscle strength, knee extension, LSMean change from baseline, Day 29: 32.5 lbs
Table 2 supportive analysis, no imputation
  Mean Difference Compound 1 vs Placebo, LSMean change in muscle strength, Day 29: 19.4 lbs
Table 2 supportive analysis, no imputation, P 0.4
  Mean Difference Compound 1 vs Placebo, Baseline mean muscle strength: 23 lbs
Human subjects, N=21 with data available
  Primary muscle strength variable of analysis vs placebo: statistically significant superiority over placebo
Human subjects, compared to their baseline measurements
  Rate of loss of muscle strength during immobilization: reduced to almost zero
Human subjects, day 21
  Mean change from baseline to day 21 in muscle strength relative to placebo: showed superiority
Human subjects, during immobilization
  Muscle atrophy during immobilization (rate of loss of muscle strength relative to placebo): effective in reducing muscle atrophy during immobilization
Human subjects, following immobilization
  Atrophy following immobilization (rate of return of muscle strength to baseline relative to placebo): reducing atrophy following immobilization
Individual Treated subjects A-I, Day 1 baseline, pre-dose, sodium salt
  Maximum muscle strength on the knee extension (KE), raw value, Day 1: 220.5 Lbs and 145.5 Lbs and 215.5 Lbs and 265.5 Lbs and 123 Lbs and 260.5 Lbs and 168 Lbs and 163 Lbs and 160.5 Lbs
Individual Treated subjects A-I, Day 14, day brace is removed, 100 mg twice daily, sodium salt
  Maximum muscle strength on the knee extension (KE), raw value, Day 14: 200.5 Lbs and 195 Lbs and 163 Lbs and 255.5 Lbs and 120.5 Lbs and 225.5 Lbs and 158 Lbs and 185.5 Lbs and 170.5 Lbs
Individual Treated subjects A-I, Day 21, primary endpoint, 100 mg twice daily, sodium salt
  Maximum muscle strength on the knee extension (KE), raw value, Day 21: 270.5 Lbs (3×) and 225.5 Lbs and 213 Lbs and 158 Lbs and 183 Lbs and 205.5 Lbs
Individual Treated subjects A-I, Day 29, final assessment during treatment period, sodium salt
  Maximum muscle strength on the knee extension (KE), raw value, Day 29: 270.5 Lbs (2×) and 235.5 Lbs and 225.5 Lbs and 213 Lbs and 150.5 Lbs and 183 Lbs and 230.5 Lbs
Individual Treated subjects A-I, Day 42, safety follow-up after end of treatment, sodium salt
  Maximum muscle strength on the knee extension (KE), raw value, Day 42: 270.5 Lbs (3×) and 265.5 Lbs and 238 Lbs and 158 Lbs and 183 Lbs and 220.5 Lbs

Source: patent US11096946B2, “Use of a PPAR-δ agonist for reducing loss of muscle strength, muscle mass, or type I muscle fibers in an immobilized limb” (vTv Therapeutics LLC, priority 2013, dated 2021)
